Assay results as given in the NIST ThermoML archive (doi:10.1016/j.jct.2019.02.022).

Experiment: xn = mol fraction of the nth substance listed
Details: Liquid, Gas absorption technique

CCn1cc[n+](C)c1.O=S(=O)([N-]S(=O)(=O)C(F)(F)F)C(F)(F)F + O=C=O gave a binary diffusion coefficient (303.15 K, 111.3 kPa, x2 = 0) of 6.15e-10 m2/s, a binary diffusion coefficient (313.15 K, 113.7 kPa, x2 = 0) of 7.22e-10 m2/s and a binary diffusion coefficient (323.15 K, 108.4 kPa, x2 = 0) of 9.52e-10 m2/s. It also gave a binary diffusion coefficient (333.15 K, 113.2 kPa, x2 = 0) of 1.19e-09 m2/s and a binary diffusion coefficient (343.15 K, 113.7 kPa, x2 = 0) of 1.56e-09 m2/s.

With Cn1cc[n+](CCO)c1.O=S(=O)([N-]S(=O)(=O)C(F)(F)F)C(F)(F)F + O=C=O the binary diffusion coefficient (303.15 K, 106.2 kPa, x2 = 0) was 1.31e-10 m2/s, the binary diffusion coefficient (313.15 K, 109.9 kPa, x2 = 0) was 2.67e-10 m2/s and the binary diffusion coefficient (323.15 K, 111.2 kPa, x2 = 0) was 3.97e-10 m2/s.

With Cn1cc[n+](CCO)c1.O=S(=O)([N-]S(=O)(=O)C(F)(F)F)C(F)(F)F + S the binary diffusion coefficient (303.15 K, 111.7 kPa, x2 = 0) was 2.07e-10 m2/s, the binary diffusion coefficient (313.15 K, 113.9 kPa, x2 = 0) was 3.35e-10 m2/s and the binary diffusion coefficient (323.15 K, 114.5 kPa, x2 = 0) was 5.51e-10 m2/s.

Work on Cn1cc[n+](CCO)c1.O=S(=O)([O-])C(F)(F)F + S yielded a binary diffusion coefficient (303.15 K, 107 kPa, x2 = 0) of 2.28e-10 m2/s, a binary diffusion coefficient (313.15 K, 109.6 kPa, x2 = 0) of 2.93e-10 m2/s and a binary diffusion coefficient (323.15 K, 113.9 kPa, x2 = 0) of 3.66e-10 m2/s.

In the case of Cn1cc[n+](CCO)c1.F[P-](F)(F)(F)(F)F [3-(2-hydroxyethyl)-1-methylimidazolium hexafluorophosphate] + O=C=O, the binary diffusion coefficient (303.15 K, 105.6 kPa, x2 = 0) is reported as 1.39e-10 m2/s, the binary diffusion coefficient (313.15 K, 109.3 kPa, x2 = 0) is reported as 2.15e-10 m2/s and the binary diffusion coefficient (323.15 K, 110.6 kPa, x2 = 0) is reported as 2.7e-10 m2/s.

Cn1cc[n+](CCO)c1.F[P-](F)(F)(F)(F)F [3-(2-hydroxyethyl)-1-methylimidazolium hexafluorophosphate] + S showed a binary diffusion coefficient (303.15 K, 111.3 kPa, x2 = 0) of 1.55e-10 m2/s, a binary diffusion coefficient (313.15 K, 113.7 kPa, x2 = 0) of 2.37e-10 m2/s and a binary diffusion coefficient (323.15 K, 108.4 kPa, x2 = 0) of 3.74e-10 m2/s.

For S [hydrogen sulfide] + CCn1cc[n+](C)c1.O=S(=O)([N-]S(=O)(=O)C(F)(F)F)C(F)(F)F, the binary diffusion coefficient (303.15 K, 109.8 kPa, x1 = 0) was 7.98e-10 m2/s, the binary diffusion coefficient (313.15 K, 108.6 kPa, x1 = 0) was 9.06e-10 m2/s and the binary diffusion coefficient (323.15 K, 109.4 kPa, x1 = 0) was 1.17e-09 m2/s.
